Measured values published in PubChem BioAssay AID1259407 (Chemical Carcinogenesis Research Information System (CCRIS), 2018).
Active and inactive are the calls of the source. No rule for the calls is given here.

System: CCRIS mutagenicity, Ames/micronucleus/aberration tests
Assay: CCRIS mutagenicity studies

`CCOC(N)=O` was tested, and the mutagenic call (End Point: IN VITRO MICRONUCLEUS, Test System: CHL/IU CELLS, Metabolic Activation: RAT, LIVER, S-9, PHENOBARBITAL AND 5,6-BENZOFLAVONE) was “inactive; negative”, the mutagenic call (End Point: IN VITRO MICRONUCLEUS, Test System: V79 CELLS, Metabolic Activation: NONE) was “inactive; negative” and the mutagenic call (End Point: IN VIVO MICRONUCLEUS, Test System: BLOOD PERIPHERAL POLYCHROMATIC AND NORMOCHROMATIC ERYTHROCYTES, Species: MICE, Strain/Sex: CYP2E1+/+ WILD TYPE/MALE, Route: ORAL (GAVAGE)) was “active; positive for both types of cells”. The mutagenic call (End Point: IN VIVO MICRONUCLEUS, Test System: BLOOD PERIPHERAL POLYCHROMATIC AND NORMOCHROMATIC ERYTHROCYTES, Species: MOUSE, Strain/Sex: CYP2E1-/- KO (KNOCKOUT)/MALE, Route: ORAL (GAVAGE)) was “inactive; negative for nce; equivocal for pce”, the mutagenic call (End Point: IN VIVO MICRONUCLEUS, Test System: ERYTHROCYTES, Species: MOUSE, Strain/Sex: WILD-TYPE (CYP2E1+/+, WT)/MALE, Route: GAVAGE) was “active; positive; significant dose-dependent increase in both polychromatic and normochr” and the mutagenic call (End Point: IN VIVO MICRONUCLEUS, Test System: PERIPHERAL BLOOD ERYTHROCYTES, Species: MOUSE, Strain/Sex: KNOCK OUT (CYP2E1-/-, KO)/MALE, Route: GAVAGE) was “inactive; negative (normochromatic erythrocytes); authors described results in polychromat”. For the same molecule, the mutagenic call (Test System: AMES SALMONELLA TYPHIMURIUM, Strain/Indicator: TA97, Metabolic Activation: HAMSTER, LIVER, S-9, AROCLOR 1254 (30%), Method: PREINCUBATION) was “inactive; negative”, the mutagenic call (Test System: AMES SALMONELLA TYPHIMURIUM, Strain/Indicator: TA97, Metabolic Activation: NONE, Method: PREINCUBATION) was “inactive; negative” and the mutagenic call (Test System: AMES SALMONELLA TYPHIMURIUM, Strain/Indicator: TA97, Metabolic Activation: RAT, LIVER, S-9, AROCLOR 1254 (30%), Method: PREINCUBATION) was “inactive; negative”. The mutagenic call (Test System: AMES SALMONELLA TYPHIMURIUM, Strain/Indicator: TA98, Metabolic Activation: HAMSTER, LIVER, S-9, AROCLOR 1254 (30%), Method: PREINCUBATION) was “inactive; negative”, the mutagenic call (Test System: AMES SALMONELLA TYPHIMURIUM, Strain/Indicator: TA98, Metabolic Activation: NONE, Method: PREINCUBATION) was “inactive; negative” and the mutagenic call (Test System: AMES SALMONELLA TYPHIMURIUM, Strain/Indicator: TA98, Metabolic Activation: RAT LIVER S-9, AROCLOR 1254, Method: PREINCUBATION) was “inactive; negative”. For the same molecule, the mutagenic call (Test System: AMES SALMONELLA TYPHIMURIUM, Strain/Indicator: TA98, Metabolic Activation: RAT, LIVER, S-9, AROCLOR 1254 (30%), Method: PREINCUBATION) was “inactive; negative”, the mutagenic call (Test System: AMES SALMONELLA TYPHIMURIUM, Strain/Indicator: TA98, Metabolic Activation: RAT, LIVER, S-9, ETHANOL, Method: PREINCUBATION) was “inactive; negative” and the mutagenic call (Test System: AMES SALMONELLA TYPHIMURIUM, Strain/Indicator: TA98, Metabolic Activation: RAT, LIVER, S-9, PYRAZOLE, Method: PREINCUBATION) was “inactive; negative”. The mutagenic call (Test System: AMES SALMONELLA TYPHIMURIUM, Strain/Indicator: TA98, Metabolic Activation: RAT, LIVER, S-9, Method: STANDARD PLATE) was “inactive; negative”, the mutagenic call (Test System: AMES SALMONELLA TYPHIMURIUM, Strain/Indicator: TA100, Metabolic Activation: HAMSTER, LIVER, S-9, AROCLOR 1254 (5, 10 OR 30%), Method: PREINCUBATION) was “inactive; negative” and the mutagenic call (Test System: AMES SALMONELLA TYPHIMURIUM, Strain/Indicator: TA100, Metabolic Activation: NONE, Method: PREINCUBATION) was “inactive; negative”. For the same molecule, the mutagenic call (Test System: AMES SALMONELLA TYPHIMURIUM, Strain/Indicator: TA100, Metabolic Activation: RAT LIVER S-9, AROCLOR 1254, Method: PREINCUBATION) was “inactive; negative”, the mutagenic call (Test System: AMES SALMONELLA TYPHIMURIUM, Strain/Indicator: TA100, Metabolic Activation: RAT, LIVER, S-9, AROCLOR 1254 (5, 10 OR 30%), Method: PREINCUBATION) was “inactive; negative” and the mutagenic call (Test System: AMES SALMONELLA TYPHIMURIUM, Strain/Indicator: TA100, Metabolic Activation: RAT, LIVER, S-9, ETHANOL, Method: PREINCUBATION) was “inactive; negative”. The mutagenic call (Test System: AMES SALMONELLA TYPHIMURIUM, Strain/Indicator: TA100, Metabolic Activation: RAT, LIVER, S-9, PYRAZOLE, Method: PREINCUBATION) was “inactive; negative”, the mutagenic call (Test System: AMES SALMONELLA TYPHIMURIUM, Strain/Indicator: TA100, Metabolic Activation: RAT, LIVER, S-9, Method: STANDARD PLATE) was “inactive; negative” and the mutagenic call (Test System: AMES SALMONELLA TYPHIMURIUM, Strain/Indicator: TA102, Metabolic Activation: NONE, Method: PREINCUBATION) was “inactive; negative”. For the same molecule, the mutagenic call (Test System: AMES SALMONELLA TYPHIMURIUM, Strain/Indicator: TA102, Metabolic Activation: RAT LIVER S-9, AROCLOR 1254, Method: PREINCUBATION) was “inactive; negative”, the mutagenic call (Test System: AMES SALMONELLA TYPHIMURIUM, Strain/Indicator: TA102, Metabolic Activation: RAT LIVER S-9, PHENOBARBITAL AND 5,6-BENZOFLAVONE, Method: STANDARD PLATE) was “inactive; negative” and the mutagenic call (Test System: AMES SALMONELLA TYPHIMURIUM, Strain/Indicator: TA102, Metabolic Activation: RAT, LIVER, S-9, ETHANOL, Method: PREINCUBATION) was “inactive; negative”. The mutagenic call (Test System: AMES SALMONELLA TYPHIMURIUM, Strain/Indicator: TA102, Metabolic Activation: RAT, LIVER, S-9, PYRAZOLE, Method: PREINCUBATION) was “inactive; negative”, the mutagenic call (Test System: AMES SALMONELLA TYPHIMURIUM, Strain/Indicator: TA1535, Metabolic Activation: HAMSTER, LIVER, S-9, AROCLOR 1254 (30%), Method: PREINCUBATION) was “active; positive” and the mutagenic call (Test System: AMES SALMONELLA TYPHIMURIUM, Strain/Indicator: TA1535, Metabolic Activation: NONE, Method: PREINCUBATION) was “inactive; negative”. The mutagenic call (Test System: AMES SALMONELLA TYPHIMURIUM, Strain/Indicator: TA1535, Metabolic Activation: RAT, LIVER, S-9, AROCLOR 1254 (5 OR 10%), Method: PREINCUBATION) was “inactive; negative”, the mutagenic call (Test System: AMES SALMONELLA TYPHIMURIUM, Strain/Indicator: TA1535, Metabolic Activation: RAT, LIVER, S-9, AROCLOR 1254 (30%), Method: PREINCUBATION) was “inactive; negative” and the mutagenic call (Test System: AMES SALMONELLA TYPHIMURIUM, Strain/Indicator: TA1535, Metabolic Activation: RAT, LIVER, S-9, ETHANOL, Method: PREINCUBATION) was “inactive; negative”. The mutagenic call (Test System: AMES SALMONELLA TYPHIMURIUM, Strain/Indicator: TA1535, Metabolic Activation: RAT, LIVER, S-9, PYRAZOLE, Method: PREINCUBATION) was “inactive; negative”, the mutagenic call (Test System: AMES SALMONELLA TYPHIMURIUM, Strain/Indicator: TA1537, Metabolic Activation: HAMSTER, LIVER, S-9, AROCLOR 1254 (30%), Method: PREINCUBATION) was “inactive; negative” and the mutagenic call (Test System: AMES SALMONELLA TYPHIMURIUM, Strain/Indicator: TA1537, Metabolic Activation: NONE, Method: PREINCUBATION) was “inactive; negative”. For the same molecule, the mutagenic call (Test System: AMES SALMONELLA TYPHIMURIUM, Strain/Indicator: TA1537, Metabolic Activation: RAT, LIVER, S-9, AROCLOR 1254 (30%), Method: PREINCUBATION) was “inactive; negative”, the mutagenic call (Test System: AMES SALMONELLA TYPHIMURIUM, Strain/Indicator: TA1537, Metabolic Activation: RAT, LIVER, S-9, PYRAZOLE, Method: PREINCUBATION) was “inactive; negative” and the mutagenic call (Test System: AMES SALMONELLA TYPHIMURIUM, Strain/Indicator: TA2638, Metabolic Activation: RAT LIVER S-9, PHENOBARBITAL AND 5,6-BENZOFLAVONE, Method: STANDARD PLATE) was “inactive; negative”. The mutagenic call (Test System: Ames Salmonella typhimurium, Strain/Indicator: YG7108pin3ERb5, Metabolic Activation: None, Method: Standard plate) was “inactive; negative”, the mutagenic call (Test System: E. COLI, Strain/Indicator: WP2 (PKM101), Metabolic Activation: RAT LIVER S-9, PHENOBARBITAL AND 5,6-BENZOFLAVONE, Method: STANDARD PLATE) was “inactive; negative” and the mutagenic call (Test System: E. COLI, Strain/Indicator: WP2 UVRA (PKM101), Metabolic Activation: RAT LIVER S-9, PHENOBARBITAL AND 5,6-BENZOFLAVONE, Method: STANDARD PLATE) was “inactive; negative”. For the same molecule, the mutagenic call (Test System: E. COLI, Strain/Indicator: WP2 UVRA, Metabolic Activation: NONE, Method: FLUCTUATION TEST) was “inactive; negative”, the mutagenic call (Test System: MOUSE LYMPHOMA, Strain/Indicator: L5178Y (TK+/TK-), Metabolic Activation: NONE, Method: MICROWELL) was “inactive; negative” and the mutagenic call (Test System: MOUSE LYMPHOMA, Strain/Indicator: L5178Y (TK+/TK-), Metabolic Activation: S-9, Method: MICROWELL) was “inactive; negative”. For the same molecule, the mutagenic call (Test System: UDS MOUSE SPERMATIDS, Strain/Indicator: THY INCORP, Metabolic Activation: NONE) was “active; positive”.
